# Test results: patent US11390604B2 (Hoffmann-La Roche Inc., priority 2019, dated 2022)
# Structures can show the parent of a compound that is named as a salt.
# Tested on: Acinetobacter baumannii ATCC 17961
# Assay: Antimicrobial susceptibility testing: 90% growth inhibitory concentration (IC90) determination
# Assay type: cell-based
# Details: ATCC17961, Acinetobacter baumannii ATCC 17961, Iso-Sensitest broth, read-out: ATCC 17961 IC90
# Summary of the method: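 Broth microdilution in Iso-Sensitest medium, twofold series (e.g. 50 to 0.097 μM final), ~5×10^5 CFU/ml inoculum, 35±2 °C. OD600 read every 20 min over 16 h. IC90 derived from growth inhibition during logarithmic phase.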
row,Structure (SMILES),IC90 [nM]
1,"C#CCn1cc(-c2cnc(C(=O)Nc3ccc(C(=O)NC[C@@H]4CNC[C@@H]4O)c(Cl)c3)n2C)c(C(F)(F)F)n1 [Example 33, N-(3-chloro-4-((((3S,4R)-4-hydroxypyrrolidin-3-yl)methyl)carbamoyl)phenyl)-1-methyl-5-(1-(prop-2-yn-1-yl)-3-(trifluoromethyl)-1H-pyrazol-4-yl)-1H-imidazole-2-carboxamide hydrochloride]",925
2,"C#CCn1cc(-c2cnc(C(=O)Nc3ccc(C(=O)N4CCN(C(=O)OC(C)(C)C)CC4)c(Cl)c3)n2C)c(C(F)(F)F)n1 [Example 34, tert-butyl 4-[2-chloro-4-[[1-methyl-5-[1-prop-2-ynyl-3-(trifluoromethyl)pyrazol-4-yl]imidazole-2-carbonyl]amino]benzoyl]piperazine-1-carboxylate]",1060
3,"C#CCn1cc(-c2cnc(C(=O)Nc3ccc(C(=O)N4CCN(C(=O)[C@@H]5C[C@@H](O)CN5)CC4)c(Cl)c3)n2C)c(C(F)(F)F)n1 [Example 36, N-[3-Chloro-4-[4-[(2S,4R)-4-hydroxypyrrolidine-2-carbonyl]piperazine-1-carbonyl]phenyl]-1-methyl-5-[1-prop-2-ynyl-3-(trifluoromethyl)pyrazol-4-yl]imidazole-2-carboxamide hydrochloride]",286
4,"C#CCn1cc(-c2cnc(C(=O)Nc3ccc(C(=O)N4CCN(C(=O)[C@H]5CCNC5)CC4)c(Cl)c3)n2C)c(C(F)(F)F)n1 [Example 37, N-[3-chloro-4-[4-[(3S)-pyrrolidine-3-carbonyl]piperazine-1-carbonyl]phenyl]-1-methyl-5-[1-prop-2-ynyl-3-(trifluoromethyl)pyrazol-4-yl]imidazole-2-carboxamide hydrochloride]",233
5,"C#CCn1cc(-c2cnc(C(=O)Nc3ccc(C(=O)N4CCN(C(=O)[C@H]5CCCN5)CC4)c(Cl)c3)n2C)c(C(F)(F)F)n1 [Example 38, N-[3-chloro-4-[4-[(2R)-pyrrolidine-2-carbonyl]piperazine-1-carbonyl]phenyl]-1-methyl-5-[1-prop-2-ynyl-3-(trifluoromethyl)pyrazol-4-yl]imidazole-2-carboxamide hydrochloride]",275
6,"C#CCn1cc(-c2cnc(C(=O)Nc3ccc(C(=O)N4CCN(C(=O)C5(O)CCNCC5)CC4)c(Cl)c3)n2C)c(C(F)(F)F)n1 [Example 39, N-[3-chloro-4-[4-(4-hydroxypiperidine-4-carbonyl)piperazine-1-carbonyl]phenyl]-1-methyl-5-[1-prop-2-ynyl-3-(trifluoromethyl)pyrazol-4-yl]imidazole-2-carboxamide hydrochloride]",257
7,"C#CCn1cc(-c2cnc(C(=O)Nc3ccc(C(=O)N4CCN(C(=O)[C@H]5CCNC[C@H]5O)CC4)c(Cl)c3)n2C)c(C(F)(F)F)n1 [Example 40, N-(3-chloro-4-(4-((3S,4S)-3-hydroxypiperidine-4-carbonyl)piperazine-1-carbonyl)phenyl)-1-methyl-5-(1-(prop-2-yn-1-yl)-3-(trifluoromethyl)-1H-pyrazol-4-yl)-1H-imidazole-2-carboxamide hydrochloride]",241
8,"C#CCn1cc(-c2cnc(C(=O)Nc3ccc(C(N)=O)c(Cl)c3)n2C)c(C(F)(F)F)n1 [Example 41, N-(4-Carbamoyl-3-chlorophenyl)-1-methyl-5-(1-(prop-2-yn-1-yl)-3-(trifluoromethyl)-11-pyrazol-4-yl)-1H-imidazole-2-carboxamide]",801
9,"C#CCn1cc(-c2cnc(C(=O)Nc3ccc(C(=O)N(C)C)c(Cl)c3)n2C)c(C(F)(F)F)n1 [Example 42, N-(3-chloro-4-(dimethylcarbamoyl)phenyl)-1-methyl-5-(1-(prop-2-yn-1-yl)-3-(trifluoromethyl)-1H-pyrazol-4-yl)-1H-imidazole-2-carboxamide]",241
10,"C#CCn1cc(-c2cnc(C(=O)Nc3ccc(C(=O)NC)c(Cl)c3)n2C)c(C(F)(F)F)n1 [Example 43, N-(3-chloro-4-(methylcarbamoyl)phenyl)-1-methyl-5-(1-(prop-2-yn-1-yl)-3-(trifluoromethyl)-1H-pyrazol-4-yl)-1H-imidazole-2-carboxamide]",478
11,"C#CCn1cc(-c2cnc(C(=O)Nc3ccc(C(=O)NCCCN)c(Cl)c3)n2C)c(C(F)(F)F)n1 [Example 44, N-(4-((3-aminopropyl)carbamoyl)-3-chlorophenyl)-1-methyl-5-(1-(prop-2-yn-1-yl)-3-(trifluoromethyl)-1H-pyrazol-4-yl)-1H-imidazole-2-carboxamide 2,2,2-trifluoroacetate]",556
12,"C#CCn1cc(-c2cnc(C(=O)Nc3ccc(C(=O)NCCOC[C@@H](C)N)c(Cl)c3)n2C)c(C(F)(F)F)n1 [Example 45, (R)-N-(4-((2-(2-aminopropoxy)ethyl)carbamoyl)-3-chlorophenyl)-1-methyl-5-(1-(prop-2-yn-1-yl)-3-(trifluoromethyl)-1H-pyrazol-4-yl)-1H-imidazole-2-carboxamide 2,2,2-trifluoroacetate]",262
13,"C#CCn1cc(-c2cnc(C(=O)Nc3ccc(C(=O)NCCOCC(C)(C)N)c(Cl)c3)n2C)c(C(F)(F)F)n1 [Example 46, N-(4-((2-(2-amino-2-methylpropoxy)ethyl)carbamoyl)-3-chlorophenyl)-1-methyl-5-(1-(prop-2-yn-1-yl)-3-(trifluoromethyl)-1H-pyrazol-4-yl)-1H-imidazole-2-carboxamide 2,2,2-trifluoroacetate]",263
14,"C#CCn1cc(-c2cnc(C(=O)Nc3ccc(C(=O)NCCOC[C@H](C)N)c(Cl)c3)n2C)c(C(F)(F)F)n1 [Example 47, (S)-N-(4-((2-(2-aminopropoxy)ethyl)carbamoyl)-3-chlorophenyl)-1-methyl-5-(1-(prop-2-yn-1-yl)-3-(trifluoromethyl)-1H-pyrazol-4-yl)-1H-imidazole-2-carboxamide 2,2,2-trifluoroacetate]",428
15,"C#CCn1cc(-c2cnc(C(=O)Nc3ccc(C(=O)NCCOCCN)c(Cl)c3)n2C)c(C(F)(F)F)n1 [Example 48, N-(4-((2-(2-aminoethoxy)ethyl)carbamoyl)-3-chlorophenyl)-1-methyl-5-(1-(prop-2-yn-1-yl)-3-(trifluoromethyl)-1H-pyrazol-4-yl)-1H-imidazole-2-carboxamide trifluoroacetate]",231
16,"Cc1cc(NC(=O)c2ncc(-c3c[nH]nc3C(F)(F)F)n2C)ccc1C(=O)NCCCCCCN [Example 49, N-(4-((6-aminohexyl)carbamoyl)-3-methylphenyl)-1-methyl-5-(3-(trifluoromethyl)-1H-pyrazol-4-yl)-1H-imidazole-2-carboxamide hydrochloride]",2830
17,"Cc1cc(NC(=O)c2ncc(-c3c[nH]nc3C(F)(F)F)n2C)ccc1C(=O)NCCCCCN [Example 50, N-(4-((5-aminopentyl)carbamoyl)-3-methylphenyl)-1-methyl-5-(3-(trifluoromethyl)-1H-pyrazol-4-yl)-1H-imidazole-2-carboxamide hydrochloride]",4680

# Same assay, conditions: Acinetobacter baumannii, ATCC17961, read-out: ATCC 17961 IC90, Acinetobacter baumannii ATCC 17961, Iso-Sensitest broth
row,Structure (SMILES),IC90 [nM]
1,"Cn1c(-c2c[nH]nc2C(F)(F)F)cnc1C(=O)Nc1ccc(C(=O)N2CCNCC2)c(Cl)c1 [Example 35, N-[3-chloro-4-(piperazine-1-carbonyl)phenyl]-1-methyl-5-[3-(trifluoromethyl)-1H-pyrazol-4-yl]imidazole-2-carboxamide hydrochloride]",3700
